Patent US10010539B2, “Pyrazole, triazole and tetrazole orexin receptor antagonists” (MERCK SHARP & DOHME CORP., priority 2014, dated 2018)

Columns and labels:
human orexin-2 receptor = human orexin-2 receptor (Homo sapiens (Human), UniProt O43614); assay: FLIPR Ca2+ Flux Assay, orexin-2 receptor (hOX2R FLIPR); type: cell-based; details: CHO cells expressing the human orexin-2 receptor; agonist 70 pM Ala-6,12 human orexin-A
Experimental: (§1) The utility of the compounds in accordance with the present invention as orexin receptor OX1R and/or OX2R antagonists may be readily determined without undue experimentation by methodology well known in the art, including the “FLIPR Ca^2+ Flux Assay” (Okumura et al., Biochem. Biophys. Res. Comm. 280:976-981, 2001). In a typical experiment the OX1 and OX2 receptor antagonistic activity of the compounds of the present invention was determined in accordance with the following experimental method. For intracellular calcium measurements, Chinese hamster ovary (CHO) cells expressing the rat orexin-1 receptor or the human orexin-2 receptor, are grown in Iscove's modified DMEM containing 2 mM L-glutamine, […], 1% hypoxanthine-thymidine supplement, 100 U/ml penicillin, 100 μg/ml streptomycin and 10% heat-inactivated fetal calf serum (FCS). The cells are seeded at 20,000 cells/well into Becton-Dickinson black 384-well clear bottom sterile plates coated with poly-D-lysine. All reagents were from GIBCO-Invitrogen Corp. The seeded plates are incubated overnight at 37° C. and 5% CO2. Ala-6,12 human orexin-A as the agonist is prepared as a 1 mM stock solution in 1% bovine serum albumin (BSA) and diluted in assay buffer (HBSS containing 20 mM HEPES, 0.1% BSA and 2.5 mM probenecid, pH7.4) for use in the assay at a final concentration of 70 pM. Test compounds are prepared as 10 mM stock solution in DMSO, then diluted in 384-well plates, first in DMSO, then assay buffer. On the day of the assay, cells are washed 3 times with 100 μl assay buffer and then incubated for 60 min (37° C., 5% CO2) in 60 μl assay buffer containing 1 μM Fluo-4AM ester, 0.02% pluronic acid, and 1% BSA. The dye loading solution is then aspirated and cells are washed 3 times with 100 μl assay buffer. 30 μl of that same buffer is left in each well. Within the Fluorescent Imaging Plate Reader (FLIPR, Molecular Devices), test compounds are added to the plate in a volume of 25 μl, incubated for 5 min and finally 25 μl of agonist is added. Fluorescence is measured for each well at 1 second intervals for 5 minutes and the height of each fluorescence peak is compared to the height of the fluorescence peak induced by 70 pM Ala-6,12 orexin-A with buffer in place of antagonist. For each antagonist, IC50 value (the concentration of compound needed to inhibit 50% of the agonist response) is determined. Alternatively, compound potency can be assessed by a radioligand binding assay (described in Bergman et. al. Bioorg. Med. Chem. Lett. 2008, 18, 1425-1430) in which the inhibition constant (Ki) is determined in membranes prepared from CHO cells expressing either the OX1 or OX2 receptor. The intrinsic orexin receptor antagonist activity of a compound which may be used in the present invention may be determined by these assays.

[1] = biological target: hOXIR (orexin-1 receptor) (Homo sapiens, UniProt O43613); assay: FLIPR Ca2+ Flux Assay, orexin-1 receptor (hOXIR FLIPR); type: cell-based; details: CHO cells expressing the orexin-1 receptor (method text: rat; table head: hOXIR); agonist 70 pM Ala-6,12 human orexin-A
Experimental: as §1

Sequence of human orexin-2 receptor (O43614 whole entry): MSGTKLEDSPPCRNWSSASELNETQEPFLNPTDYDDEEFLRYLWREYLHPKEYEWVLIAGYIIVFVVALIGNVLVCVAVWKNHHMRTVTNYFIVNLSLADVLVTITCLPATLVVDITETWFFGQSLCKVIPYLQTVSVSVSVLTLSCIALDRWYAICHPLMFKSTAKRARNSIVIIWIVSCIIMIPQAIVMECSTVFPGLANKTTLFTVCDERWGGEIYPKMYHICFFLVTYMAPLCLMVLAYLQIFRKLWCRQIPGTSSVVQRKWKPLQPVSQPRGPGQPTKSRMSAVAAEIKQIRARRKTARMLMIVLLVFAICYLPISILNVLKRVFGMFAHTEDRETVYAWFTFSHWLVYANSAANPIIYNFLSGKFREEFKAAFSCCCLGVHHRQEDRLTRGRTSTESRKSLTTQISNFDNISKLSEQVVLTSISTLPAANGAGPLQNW

Compound	IC50 (human orexin-2 receptor)	IC50 [1]
Cc1nc(-c2c(F)cccc2C(=O)N2C[C@H](n3ncc(C(C)(C)O)n3)CC[C@H]2C)no1 [Example 37, 2-{2-[(3R,6R)-1-{[3-fluoro-2-(5-methyl-1,2,4-oxadiazol-3-yl)phenyl]carbonyl}-6-methylpiperidin-3-yl]-2H-1,2,3-triazol-4-yl}propan-2-ol]	75.2 nM	> 10000 nM
Cc1cnn(-c2ncccc2C(=O)N2C[C@H](n3ncc(C(C)(C)O)n3)CC[C@H]2C)c1 [Example 10, ((2R,5R)-5-(4-(2-Hydroxypropan-2-yl)-2H-1,2,3-triazol-2-yl)-2-methylpiperidin-1-yl)(2-(4-methyl-1H-pyrazol-1-yl)pyridin-3-yl)methanone]	26 nM	> 10000 nM
CCOc1ccccc1C(=O)N1C[C@H](n2cc(C(C)(C)O)cn2)CC[C@H]1C [Example 77, 2-(1-{(3R,6R)-1-[(2-Ethoxyphenyl)carbonyl]-6-methylpiperidin-3-yl}-1H-pyrazol-4-yl)propan-2-ol]	121 nM	> 10000 nM
Cc1noc(-c2c(F)cccc2C(=O)N2C[C@H](n3ncc(C(C)(C)O)n3)CC[C@H]2C)n1 [Example 48, 2-{2-[(3R,6R)-1-{[3-fluoro-2-(3-methyl-1,2,4-oxadiazol-5-yl)phenyl]carbonyl}-6-methylpiperidin-3-yl]-2H-1,2,3-triazol-4-yl}propan-2-ol]	136 nM	> 10000 nM
CCOc1ncccc1C(=O)N1C[C@H](n2cc(C(C)(C)O)cn2)CC[C@H]1C [Example 89, 2-(1-{(3R,6R)-1-[(2-Ethoxypyridin-3-yl)carbonyl]-6-methylpiperidin-3-yl}-1H-pyrazol-4-yl)propan-2-ol]	283 nM	> 10000 nM
COC(=O)c1ncccc1C(=O)N1C[C@H](n2ncc(C(C)(C)O)n2)CC[C@H]1C [Example 8, Methyl 3-((2R,5R)-5-(4-(2-hy-droxypropan-2-yl)-2H-1,2,3-triazol-2-yl)-2-methylpiperidine-1-carbonyl)picolinate]	1780 nM	> 10000 nM
Cc1nc(-c2ccccc2C(=O)N2C[C@H](n3ncc(C(C)(C)O)n3)CC[C@H]2C)no1 [Example 47, 2-{2-[(3R,6R)-6-methyl-1-{[2-(5-methyl-1,2,4-oxadiazol-3-yl)phenyl]carbonyl}piperidin-3-yl]-2H-1,2,3-triazol-4-yl}propan-2-ol]	45.7 nM	> 10000 nM
C[C@@H]1CC[C@@H](n2cc(C(C)(C)O)cn2)CN1C(=O)c1ccccc1-n1cccn1 [Example 93, 2-{1-[(3R,6R)-6-Methyl-1-{[2-(1H-pyrazol-1-yl)phenyl]carbonyl}piperidin-3-yl]-1H-pyrazol-4-yl}propan-2-ol]	92.7 nM	> 10000 nM
C[C@@H]1CC[C@@H](n2cc([C@](C)(O)C(F)(F)F)cn2)CN1C(=O)c1ccccc1-n1nccn1 [Example 106, (2S)-1,1,1-Trifluoro-2-{1-[(3R,6R)-6-methyl-1-{[2-(2H-1,2,3-triazol-2-yl)phenyl]carbonyl}piperidin-3-yl]-1H-pyrazol-4-yl}propan-2-ol]	10.6 nM	2060 nM
C[C@@H]1CC[C@@H](n2cc(C(C)(C)O)cn2)CN1C(=O)c1ccccc1[C@H]1CC1(F)F [Example 86, 2-{1-[(3R,6R)-1-({2-[(1R)-2,2-Difluorocyclopropyl]phenyl}carbonyl)-6-methylpiperidin-3-yl]-1H-pyrazol-4-yl}propan-2-ol]	152 nM	> 10000 nM
COc1ccc(C(=O)N2C[C@H](n3ncc(C(C)(C)O)n3)CC[C@H]2C)c(-n2nccn2)n1 [Example 45, 2-{2-[(3R,6R)-1-{[6-methoxy-2-(2H-1,2,3-triazol-2-yl)pyridin-3-yl]carbonyl}-6-methylpiperidin-3-yl]-2H-1,2,3-triazol-4-yl}propan-2-ol]	51.4 nM	> 10000 nM
COC(=O)c1cnn([C@@H]2CC[C@@H](C)N(C(=O)c3ccccc3-n3nccn3)C2)n1 [Example 24, Methyl 2-((3R,6R)-1-(2-(2H-1,2,3-triazol-2-yl)benzoyl)-6-methylpiperidin-3-yl)-2H-1,2,3-triazole-4-carboxylate]	512 nM	> 10000 nM
COc1ccc(C(=O)N2C[C@H](n3cc(C(C)(C)O)cn3)CC[C@H]2C)c(C2CC2)n1 [Example 96, 2-(1-{(3R,6R)-1-[(2-Cyclopropyl-6-methoxypyridin-3-yl)carbonyl]-6-methylpiperidin-3-yl}-1H-pyrazol-4-yl)propan-2-ol]	1600 nM	> 10000 nM
C[C@@H]1CC[C@@H](n2ncc(C(C)(C)O)n2)CN1C(=O)c1cccc(F)c1-n1nccn1 [Example 31, 2-{2-[(3R,6R)-1-{[3-fluoro-2-(2H-1,2,3-triazol-2-yl)phenyl]carbonyl}-6-methylpiperidin-3-yl]-2H-1,2,3-triazol-4-yl}propan-2-ol]	36.4 nM	> 10000 nM
Cc1noc(-c2ccc(F)cc2C(=O)N2C[C@H](n3ncc(C(C)(C)O)n3)CC[C@H]2C)n1 [Example 35, 2-{2-[(3R,6R)-1-{[5-fluoro-2-(3-methyl-1,2,4-oxadiazol-5-yl)phenyl]carbonyl}-6-methylpiperidin-3-yl]-2H-1,2,3-triazol-4-yl}propan-2-ol]	593 nM	> 10000 nM
CC(C)Oc1ccccc1C(=O)N1C[C@H](n2cc(C(C)(C)O)cn2)CC[C@H]1C [Example 81, 2-{1-[(3R,6R)-6-Methyl-1-{[2-(1-methylethoxy)phenyl]carbonyl}piperidin-3-yl]-1H-pyrazol-4-yl}propan-2-ol]	89.8 nM	> 10000 nM
C[C@@H]1CC[C@@H](n2cc(C(C)(C)O)cn2)CN1C(=O)c1cccnc1-n1cccn1 [Example 90, 2-{1-[(3R,6R)-6-Methyl-1-{[2-(1H-pyrazol-1-yl)pyridin-3-yl]carbonyl}piperidin-3-yl]-1H-pyrazol-4-yl}propan-2-ol]	33.6 nM	> 10000 nM
C[C@@H]1CC[C@@H](n2nnc(C(C)(C)O)n2)CN1C(=O)c1ccccc1-n1nccn1 [Example 74, 2-{2-[(3R,6R)-6-Methyl-1-{[2-(2H-1,2,3-triazol-2-yl)phenyl]carbonyl}piperidin-3-yl]-2H-tetrazol-5-yl}propan-2-ol]	44.9 nM	> 10000 nM
C[C@@H]1CC[C@@H](n2ncc(C(C)(C)O)n2)CN1C(=O)c1cccc(Oc2ccccc2)c1 [Example 50, 2-(2-{(3R,6R)-6-methyl-1-[(3-phenoxyphenyl)carbonyl]piperidin-3-yl}-2H-1,2,3-triazol-4-yl)propan-2-ol]	126 nM	> 10000 nM
Cc1c(C(C)(C)O)cnn1[C@@H]1CC[C@@H](C)N(C(=O)c2ccccc2-n2nccn2)C1 [Example 108, 2-{5-Methyl-1-[(3R,6R)-6-methyl-1-{[2-(2H-1,2,3-triazol-2-yl)phenyl]carbonyl}piperidin-3-yl]-1H-pyrazol-4-yl}propan-2-ol]	73.2 nM	3370 nM
C[C@@H]1CC[C@@H](n2ncc(C(C)(C)O)n2)CN1C(=O)c1cccnc1C1CC1 [Example 60, 2-(2-{(3R,6R)-1-[(2-Cyclopropylpyridin-3-yl)carbonyl]-6-methylpiperidin-3-yl}-2H-1,2,3-triazol-4-yl)propan-2-ol]	608 nM	> 10000 nM
C[C@@H]1CC[C@@H](n2ncc(C(C)(C)O)n2)CN1C(=O)c1ccccc1-c1ccccc1 [Example 2, [1,1′-Biphenyl]-2-yl((2R,5R)-5-(4-(2-hydroxypropan-2-yl)-2H-1,2,3-triazol-2-yl)-2-methylpiperidin-1-yl)methanone]	16.2 nM	483 nM
C[C@@H]1CC[C@@H](n2cc(C(C)(C)O)cn2)CN1C(=O)c1cccnc1OCC(F)(F)F [Example 94, 2-{1-[(3R,6R)-6-Methyl-1-{[2-(2,2,2-trifluoroethoxy)pyridin-3-yl]carbonyl}piperidin-3-yl]-1H-pyrazol-4-yl}propan-2-ol]	37 nM	> 10000 nM
Cc1nn([C@@H]2CC[C@@H](C)N(C(=O)c3cccnc3OC(C)C)C2)nc1C(C)(C)O [Example 63, 2-{5-Methyl-2-[(3R,6R)-6-methyl-1-{[2-(1-methylethoxy)pyridin-3-yl]carbonyl}piperidin-3-yl]-2H-1,2,3-triazol-4-yl}propan-2-ol]	15.9 nM	3350 nM
